Test results published in US7563805B2, “Tri-, tetra-substituted-3-aminopyrrolidine derivative” (Daiichi Pharmaceutical Co., Ltd., priority 2005, dated 2009).
Values after ≈ are worked out from the molar mass of the structure shown.

Experiments:
[1] = system: E. faecalis, ATCC 19433; test: antibacterial activity (MIC), standard method of Japanese Society of Chemotherapy; conditions: Enterococcus faecalis, ATCC19433, E. faecalis
[2] = system: P. aeruginosa, 32121; test: as above; conditions: Pseudomonas aeruginosa
[3] = system: S. marscecens, 10100; test: as above
[4] = system: E. coli NIHJ; test: antibacterial activity (MIC), standard method of Japanese Society of Chemotherapy; conditions: Escherichia coli
[5] = system: S. aureus, 209P; test: as above; conditions: Staphylococcus aureus
[6] = system: P. vulgaris, 08601; test: as above; conditions: Proteus vulgaris, 08601, P. vulgaris
[7] = system: S. aureus, 87037 (LVFX-resistant MRSA); test: as above; conditions: Staphylococcus aureus, MRSA, S. aureus, 87037 (LVFX-resistant MRSA)
[8] = target: hERG K+ channel (Homo sapiens, UniProt Q12809); test: hERG-K^+ channel blocking effect
[9] = system: S. epidermidis, 56500; test: antibacterial activity (MIC), standard method of Japanese Society of Chemotherapy; conditions: Staphylococcus epidermidis, 56500, S. epidermidis
[10] = system: S. pneumoniae, J24 (penicillin-intermediate resistant bacteria); test: as above; conditions: Streptococcus pneumoniae
[11] = system: P. aeruginosa, 32104; test: as above; conditions: Pseudomonas aeruginosa
[12] = system: Mycobacterium tuberculosis (sensitive bacteria); test: anti-Mycobacterium tuberculosis (sensitive bacteria) activity, MIC; assay type: cell-based
[13] = system: Mycobacterium tuberculosis (quinolone sensitive); test: anti-Mycobacterium tuberculosis (quinolone sensitive) activity, MIC; assay type: cell-based

Chain of hERG K+ channel (Q12809 whole entry): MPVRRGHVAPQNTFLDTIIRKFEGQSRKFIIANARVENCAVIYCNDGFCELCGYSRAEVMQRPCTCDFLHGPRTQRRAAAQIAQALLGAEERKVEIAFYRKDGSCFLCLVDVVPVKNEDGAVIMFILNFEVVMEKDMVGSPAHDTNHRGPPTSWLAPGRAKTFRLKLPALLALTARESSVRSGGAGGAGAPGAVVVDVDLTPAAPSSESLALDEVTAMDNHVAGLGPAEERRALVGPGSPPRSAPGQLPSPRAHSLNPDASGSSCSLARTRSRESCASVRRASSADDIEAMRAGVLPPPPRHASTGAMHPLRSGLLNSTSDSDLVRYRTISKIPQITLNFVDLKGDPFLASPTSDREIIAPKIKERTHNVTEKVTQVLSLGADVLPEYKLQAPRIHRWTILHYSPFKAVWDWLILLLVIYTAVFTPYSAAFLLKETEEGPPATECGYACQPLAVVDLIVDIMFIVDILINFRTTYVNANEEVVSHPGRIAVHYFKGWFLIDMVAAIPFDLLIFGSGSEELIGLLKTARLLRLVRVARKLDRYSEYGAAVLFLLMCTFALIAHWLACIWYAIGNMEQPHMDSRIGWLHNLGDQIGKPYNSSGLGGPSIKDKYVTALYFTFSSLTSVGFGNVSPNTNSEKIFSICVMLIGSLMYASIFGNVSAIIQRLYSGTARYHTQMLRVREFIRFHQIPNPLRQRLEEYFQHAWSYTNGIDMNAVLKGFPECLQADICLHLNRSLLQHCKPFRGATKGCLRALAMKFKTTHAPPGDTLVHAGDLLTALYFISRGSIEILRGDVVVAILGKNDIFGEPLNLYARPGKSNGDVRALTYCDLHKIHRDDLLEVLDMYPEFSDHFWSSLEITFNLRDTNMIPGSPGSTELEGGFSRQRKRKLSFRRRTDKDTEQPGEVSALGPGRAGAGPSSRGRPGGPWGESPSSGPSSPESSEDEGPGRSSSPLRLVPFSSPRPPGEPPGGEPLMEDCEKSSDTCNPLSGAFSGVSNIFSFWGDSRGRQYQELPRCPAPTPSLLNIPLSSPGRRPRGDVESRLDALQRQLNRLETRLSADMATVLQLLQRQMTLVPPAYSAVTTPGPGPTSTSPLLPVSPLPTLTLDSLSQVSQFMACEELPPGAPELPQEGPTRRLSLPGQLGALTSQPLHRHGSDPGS

Compound: Cc1c(N2C[C@H](CF)[C@](C)(N)C2)c(F)cc2c(=O)c(C(=O)O)cn(C3CC3)c12 [Example 23, 7-[(3S,4S)-3-Amino-4-fluoromethyl-3-methylpyrrolidin-1-yl]-1-cyclopropyl-6-fluoro-8-methyl-1,4-dihydro-4-oxoquinoline-3-carboxylic acid]
- MIC [1]: 0.1 µg/mL (≈ 0.255 µM)
- MIC [2]: 0.05 µg/mL (≈ 0.128 µM)
- MIC [3]: 0.05 µg/mL (≈ 0.128 µM)
- melting point: 212 to 215 °C
- MIC [4]: ≤ 0.003 µg/mL
- MIC [5]: 0.025 µg/mL (≈ 0.0639 µM)
- MIC [6]: 0.006 µg/mL (≈ 0.0153 µM)
- MIC [7]: 0.39 µg/mL (≈ 0.996 µM)
- inhibition at 30 µM [8]: 3 ± 4.1%
- inhibition at 100 µM [8]: 4.6 ± 4.7%
- inhibition at 300 µM [8]: 16.7 ± 8.4%
- MIC [9]: 0.05 µg/mL (≈ 0.128 µM)
- MIC [10]: 0.05 µg/mL (≈ 0.128 µM)

Compound: COc1c(N2CC(OC)C(C)(N)C2)c(F)cc2c(=O)c(C(=O)O)cn([C@@H]3C[C@@H]3F)c12 (stereo partly drawn) [Example 19, 7-(3-Amino-4-methoxy-3-methylpyrrolidine-1-yl)-6-fluoro-1-[(1R,2S)-2-fluorocyclopropyl]-8-methoxy-1,4-dihydro-4-oxoquinoline-3-carboxylic acid]
- melting point: 162 to 163 °C

Compound: C[C@H]1COc2c(N3CCN(C)CC3)c(F)cc3c(=O)c(C(=O)O)cn1c23 [LVFX, levofloxacin, reference compound]
- MIC [1]: 0.78 µg/mL (≈ 2.16 µM)
- MIC [2]: 0.1 µg/mL (≈ 0.277 µM)
- MIC [3]: 0.1 µg/mL (≈ 0.277 µM)
- MIC [4]: 0.012 µg/mL (≈ 0.0332 µM)
- MIC [11]: 0.2 µg/mL (≈ 0.553 µM)
- MIC [5]: 0.2 µg/mL (≈ 0.553 µM)
- MIC [6]: 0.012 µg/mL (≈ 0.0332 µM)
- MIC [7]: > 6.25 µg/mL
- MIC [9]: 0.39 µg/mL (≈ 1.08 µM)
- MIC [10]: 0.78 µg/mL (≈ 2.16 µM)

Compound: COc1c(N2CC(C)[C@@](N)(CF)C2)c(F)cc2c(=O)c(C(=O)O)cn([C@@H]3C[C@@H]3F)c12 (stereo partly drawn) [Example 28, 7-[(3S)-3-Amino-3-fluoromethyl-4-methylpyrrolidin-1-yl]-6-fluoro-1-[(1R,2S)-2-fluoro-1-cyclopropyl]-8-methoxy-1,4-dihydro-4-oxoquinoline-3-carboxylic acid]
- MIC [1]: 0.2 µg/mL (≈ 0.47 µM)
- MIC [2]: 0.39 µg/mL (≈ 0.917 µM)
- MIC [3]: 0.39 µg/mL (≈ 0.917 µM)
- melting point: 167 to 169 °C
- MIC [4]: 0.025 µg/mL (≈ 0.0588 µM)
- MIC [5]: 0.025 µg/mL (≈ 0.0588 µM)
- MIC [6]: 0.05 µg/mL (≈ 0.118 µM)
- MIC [7]: 0.2 µg/mL (≈ 0.47 µM)
- MIC [9]: 0.05 µg/mL (≈ 0.118 µM)
- MIC [10]: 0.1 µg/mL (≈ 0.235 µM)

Compound: CCC1CN(c2c(F)cc3c(=O)c(C(=O)O)cn([C@@H]4C[C@@H]4F)c3c2OC)CC1(C)N (relative stereo) [Example 14, 7-[(3R*,4R*)-3-Amino-4-ethyl-3-methylpyrrolidin-1-yl]-6-fluoro-1-[(1R,2S)-2-fluorocyclopropyl]-8-methoxy-1,4-dihydro-4-oxoquinoline-3-carboxylic acid]
- melting point: 167 to 169 °C

Compound: CO[C@H]1/C=C/O[C@@]2(C)Oc3c(C)c(O)c4c(O)c(c(/C=N/N5CCN(C)CC5)c(O)c4c3C2=O)NC(=O)/C(C)=C\C=C\[C@H](C)[C@H](O)[C@@H](C)[C@@H](O)[C@@H](C)[C@H](OC(C)=O)[C@@H]1C [RFP, Rifampicin]
- MIC ([12]; H37RV, strain H37Rv): 0.125 µg/mL (≈ 0.152 µM)
- MIC ([12]; strain Kurono): 0.06 µg/mL (≈ 0.0729 µM)
- MIC ([12]; strain Ravenel): 0.125 µg/mL (≈ 0.152 µM)
- MIC ([12]; strain TB-s 2): 0.03 µg/mL (≈ 0.0365 µM)
- MIC ([12]; strain TB-s 3): 0.125 µg/mL (≈ 0.152 µM)
- MIC ([12]; strain TB-s 4): 0.06 µg/mL (≈ 0.0729 µM)
- MIC ([12]; strain TB-s 5): 0.06 µg/mL (≈ 0.0729 µM)
- MIC ([12]; strain TB-s 6): 0.125 µg/mL (≈ 0.152 µM)
- MIC ([12]; strain TB-s 7): 0.06 µg/mL (≈ 0.0729 µM)
- MIC ([12]; strain TB-s 8): 0.015 µg/mL (≈ 0.0182 µM)
- MIC ([12]; strain TB-s 9): 0.06 µg/mL (≈ 0.0729 µM)
- MIC ([12]; strain TB-s 10): 0.06 µg/mL (≈ 0.0729 µM)
- MIC ([12]; strain TB-s 11): 0.06 µg/mL (≈ 0.0729 µM)
- MIC ([12]; strain TB-s 12): 0.125 µg/mL (≈ 0.152 µM)
- MIC ([12]; strain TB-s 13): 0.06 µg/mL (≈ 0.0729 µM)
- MIC ([12]; strain TB-s 14): 0.03 µg/mL (≈ 0.0365 µM)
- MIC ([12]; strain TB-s 15): 0.06 µg/mL (≈ 0.0729 µM)
- MIC ([12]; strain TB-s 16): 0.06 µg/mL (≈ 0.0729 µM)
- MIC ([12]; strain TB-s 17): 0.06 µg/mL (≈ 0.0729 µM)
- MIC ([12]; strain TB-s 18): 0.03 µg/mL (≈ 0.0365 µM)
- MIC ([12]; strain TB-s 19): 0.125 µg/mL (≈ 0.152 µM)
- MIC ([12]; strain TB-s 20): 0.25 µg/mL (≈ 0.304 µM)
- MIC ([12]; strain TB-s 21): 0.03 µg/mL (≈ 0.0365 µM)
- MIC ([12]; strain TB-s 22): 0.015 µg/mL (≈ 0.0182 µM)
- MIC ([13]; strain 1 (QR-3)): > 128 µg/mL
- MIC ([13]; strain 2 (QR-6)): > 128 µg/mL
- MIC ([13]; strain 3 (QR-1)): 128 µg/mL (≈ 156 µM)
- MIC ([13]; strain 4 (QR-9)): > 128 µg/mL
- MIC ([13]; strain MDR 1): 16 µg/mL (≈ 19.4 µM)
- MIC ([13]; strain MDR 3): 128 µg/mL (≈ 156 µM)
- MIC ([13]; strain MDR 4): 64 µg/mL (≈ 77.8 µM)
- MIC ([13]; strain MDR 5): 32 µg/mL (≈ 38.9 µM)
- MIC ([13]; strain MDR 7): > 128 µg/mL
- MIC ([13]; strain MDR 9): 128 µg/mL (≈ 156 µM)
- MIC ([13]; strain MDR 12): 128 µg/mL (≈ 156 µM)
- MIC ([13]; strain S 1): 16 µg/mL (≈ 19.4 µM)

Compound: COc1c(N2CC(OC)C(C)(N)C2)c(F)cc2c(=O)c(C(=O)O)cn([C@@H]3C[C@@H]3F)c12 (stereo partly drawn) [Example 18, 7-(3-Amino-4-methoxy-3-methylpyrrolidine-1-yl)-6-fluoro-1-[(1R,2S)-2-fluorocyclopropyl]-8-methoxy-1,4-dihydro-4-oxoquinoline-3-carboxylic acid]
- melting point: 150 to 151 °C
